Experiments:
[1] = system: colon cancer cells; assay: Protein expression level changes after treatment with FAK inhibitors (in-solution digestion, protein identification, expression ratios, FIG. 14); format: cell-based, human; set-up: dose or concentration left out as unconfirmed; conditions: 2 hours (FIG. 14)
Procedure: A human colon cancer cell line, HCT-116, was cultured using an RPMI-1640 medium containing 10% (v/v) heat-inactivated FBS and 1% (v/v) penicillin/streptomycin in a 60 mm plastic culture plate (Corning Life Science, Acton, Mass., USA) until its cell density reached 2×10^6 cells/cm^2. The culture was performed in a humidified incubator of 5% CO2 at 37° C. The cells were starved for 24 hours and washed with serum-free medium. FGF signaling was amplified by adding 10 ng/mL of EGF, IGF, PMA, and PDGF, followed by further incubation for 2 hours. Thereafter, the cells were harvested and collected by centrifugation at a speed of 300 g for 5 minutes. Cell membranes were disrupted using a sonicator, and centrifuged at a speed of 13,000 g for 30 minutes to collect lysed intracellular proteins. Further, to compare the amounts of expressed FAK-binding proteins by using defactinib (VS-6063) and PF-573228, which are FAK inhibitors, independently or simultaneously, normal intestinal epidermal cells and colon cancer cells were each treated with FAK inhibitors at three different final concentrations […], 1 mM, and 10 mM (2 hours), and then cells were collected and subjected to in-solution digestion to isolate and identify the proteins.

[2] = system: colon cancer cell line HCT-116; assay: Western blotting / immunoprecipitation of FAK and FAK-bound protein complexes after treatment with FAK signaling substances; format: cell-based, human; conditions: HCT-116, 10 ng/mL, 2 hours, compared with control group not treated with the signaling substances (FIG. 7)
Procedure: A human colon cancer cell line, HCT-116, was cultured using an RPMI-1640 medium containing 10% (v/v) heat-inactivated FBS and 1% (v/v) penicillin/streptomycin in a 60 mm plastic culture plate (Corning Life Science, Acton, Mass., USA) until its cell density reached 2×10^6 cells/cm^2. The culture was performed in a humidified incubator of 5% CO2 at 37° C. The cells were starved for 24 hours and washed with serum-free medium. FGF signaling was amplified by adding 10 ng/mL of EGF, IGF, PMA, and PDGF, followed by further incubation for 2 hours. Thereafter, the cells were harvested and collected by centrifugation at a speed of 300 g for 5 minutes. Cell membranes were disrupted using a sonicator, and centrifuged at a speed of 13,000 g for 30 minutes to collect lysed intracellular proteins. Further, to compare the amounts of expressed FAK-binding proteins by using defactinib (VS-6063) and PF-573228, which are FAK inhibitors, independently or simultaneously, normal intestinal epidermal cells and colon cancer cells were each treated with FAK inhibitors at three different final concentrations of 0.1 mM, 1 mM, and 10 mM (2 hours), and then cells were collected and subjected to in-solution digestion to isolate and identify the proteins.
The concentrations of the collected proteins were determined using a bicinchoninic acid (BCA) protein assay kit (Thermo Fisher Scientific, Waltham, Mass., USA), and the remaining samples were separated by 10% SDS-PAGE (sodium dodecyl sulfate-polyacrylamide gel electrophoresis), and transferred to a nitrocellulose membrane (Pall Corporation, Pensacola, Fla., USA) to perform Western blotting. The membrane was blocked with PBS containing 0.2% TWEEN 20 and 5% non-fat dry milk for about 2 hours, and blotting was performed using anti-phospho-FAK (1:1000) antibody and anti-β-actin (1:5000) antibody overnight. HRP-conjugated goat anti-rabbit IgG diluted 1:5000 was used as a secondary antibody, and fluorescence images were scanned using an Ez-capture MG (ATTO, NY, USA) instrument. For IP, 1.5 mg of the cell lysate was prepared and incubated overnight with 20 μL of agarose beads preblocked (at 4° C. for 2 hours) with PBS containing 1% bovine serum albumin (BSA), wherein 10 μL of FAK antibody (1:500) was immobilized to the agarose beads. To remove nonspecific binding, the beads were washed with 600 μL of PBS containing 0.1% TWEEN 20 twice, and FAK protein and proteins bound thereto were crosslinked using 2 mM of dithiobis(succinimidyl propionate) (DSP) and dithiobismaleimidoethane (DTME). The crosslinking agents were dissolved in 20 mM DMSO and diluted with PBS (pH 7.4), and then used in the reaction. Washing was performed five times using 600 μL of a 0.1% solution of PBS-Tween 20 and further performed using PBS twice. […]

| Compound | complexes of the FAK protein and the proteins specifically bound thereto [2] | further results |
| --- | --- | --- |
| CS(=O)(=O)c1cccc(CNc2nc(Nc3ccc4c(c3)CCC(=O)N4)ncc2C(F)(F)F)c1 [PF-573228] |  | ELAVL1 expression level [1]: statistically significant reduction; SYNE1 expression level [1]: statistically significant reduction; ZYX expression level [1]: statistically significant reduction; ARFGEF expression level ([1]; reduction only with PF-573228): significant reduction |
| CCCCCCCCCCCCCC(=O)O[C@@H]1[C@@H](C)[C@@]2(O)[C@@H](C=C(CO)C[C@]3(O)C(=O)C(C)=C[C@@H]23)[C@@H]2C(C)(C)[C@]12OC(C)=O [PMA, phorbol 12-myristate 13-acetate] | increased two-fold or more |  |
| PDGF | increased two-fold or more |  |
| hEGF: human epidermal growth factor, FAK signaling substance | increased two-fold or more |  |
| hIGF-1: human insulin-like growth factor-1, FAK signaling substance | increased two-fold or more |  |
